Data: patent publication US20250230226A1, “PLXDC1/PLXDC2 ACTIVATORS AND THEIR USE IN THE TREATMENT OF BLOOD VESSEL DISORDERS” (THE REGENTS OF THE UNIVERSITY OF CALIFORNIA, priority 2019, published 2025)

What was measured:
[1] = system: LL/2 lung cancer tumor endothelial cells; experiment: Lung LL2 ex vivo model of tumor angiogenesis; format: cell-based, mouse; details: for 48 hrs (morphology observations): LL/2 tumor endothelial cells; for cytotoxicity at 20 µM / cytotoxicity at 40 µM: Mus musculus, Endothelial cell, 48 h, read-out: Cell death; for Cell death: drug treatment for two days, ratio of red area to total endothelial cell area
Outline: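 LL2 mouse tumor fragments (~0.075 mm³) embedded in Matrigel and cultured in endothelial growth medium at 37 °C until endothelial outgrowth (~4 days) before treatment. Cell death assessed e.g. 48 h after drug by fluorescein diacetate (live)/propidium iodide (dead) staining and red/green fluorescence imaging.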

[2] = system: CT26.CL25 colon cancer tumor endothelial cells; experiment: Colon CT26 ex vivo model of tumor angiogenesis; format: cell-based, mouse; details: for cytotoxicity at 10 µM / cytotoxicity at 40 µM / cytotoxicity at 20 µM: Mus musculus, Endothelial cell, 48 h, read-out: Cell death
Outline: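 Pieces of CT26 mouse tumor (~0.075 mm³) embedded in Matrigel and cultured in endothelial growth medium at 37 °C, 5% CO2 until endothelial outgrowth appeared (about 7 days), then treated. About 48 h after drug addition, live/dead staining with fluorescein diacetate and propidium iodide was imaged in green and red channels.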

Row | Structure (SMILES) | 48 hrs (morphology observations) ([1]; 20 μm) | 48 hrs (morphology observations after 48 hours) ([2]; Conc. 40 μm) | cytotoxicity at 40 µM [2] [%] | Cell death ([1]; 20 μm) [%] | further results
1 | CCCCOc1ccc(S(=O)(=O)c2cnc3ccc(OC(F)(F)F)cc3c2-n2cncn2)cc1 [Compound 93] | *** (more than 50% but less than 100% of endothelial cells vesicularize in cell shape) | – | – | – | cytotoxicity at 20 µM [1]: 100%; 48 hrs (morphology observations after 48 hours) ([2]; Conc. 10 μm): *** (100% of endothelial cells vesicularize in cell shape); cytotoxicity at 10 µM [2]: 100%
2 | COc1ccc(S(=O)(=O)c2cnc3ccc([N+](=O)[O-])cc3c2NN2CCN(C)CC2)cc1 [Compound 94] | – | 0 | 0 | – | Cell death ([1]; 40 μm): 20%
3 | CCc1ccc(S(=O)(=O)c2cnc3ccc(OC(F)(F)F)cc3c2NCCO)cc1 [Compound 95] | – | 0 | 0 | – | Cell death ([1]; 40 μm): 10%
4 | COc1ccc(S(=O)(=O)c2cnc3cc(OC)c(OC)cc3c2-n2cncn2)cc1OC [Compound 96] | – | – | – | – | cytotoxicity at 20 µM [1]: 0%; 48 hrs (morphology observations after 48 hours) ([2]; Conc. 10 μm): 0; cytotoxicity at 10 µM [2]: 0%
5 | COc1ccc(S(=O)(=O)c2cnc3ccc([N+](=O)[O-])cc3c2-n2cncn2)cc1 [Compound 97] | – | – | – | 50 | 48 hrs (morphology observations after 48 hours) ([2]; Conc. 10 μm): *** (100% of endothelial cells vesicularize in cell shape); cytotoxicity at 10 µM [2]: 100%
6 | COc1ccc(S(=O)(=O)c2cnc3ccc(CC#N)cc3c2-n2cncn2)cc1 [Compound 98] | – | – | – | 10 | 48 hrs (morphology observations after 48 hours) ([2]; Conc. 10 μm): *** (100% of endothelial cells vesicularize in cell shape); cytotoxicity at 10 µM [2]: 50%
7 | COc1ccc(S(=O)(=O)c2cnc3ccc(CC#N)cc3c2NN2CCN(C)CC2)cc1 [Compound 99] | – | 0 | 0 | – | Cell death ([1]; 40 μm): 10%
8 | CCc1ccc(S(=O)(=O)c2cnc3ccc(OC(F)(F)F)cc3c2N2CCCN(CCN(CC)CC)CC2)cc1 [Compound 100] | – | **** (100% of endothelial cells vesicularize in cell shape and look flattened in morphology (indicating disintegration of the cell body)) | 100 | – | 48 hrs (morphology observations) ([1]; 40 μm): **** (100% of endothelial cells vesicularize in cell shape and look flattened in morphology (indicating disintegration of the cell body)); cytotoxicity at 40 µM [1]: 100%
9 | CCc1ccc(S(=O)(=O)c2cnc3ccc(OC(F)(F)F)cc3c2N2CCC(OCCN(CC)CC)CC2)cc1 [Compound 101] | *** (more than 50% but less than 100% of endothelial cells vesicularize in cell shape) | – | – | – | cytotoxicity at 20 µM [1]: 100%; 48 hrs (morphology observations after 48 hours) ([2]; Conc. 20 μm): * (50% or less of cells vesicularize in cell shape); cytotoxicity at 20 µM [2]: 50%
10 | CCc1ccc(S(=O)(=O)c2cnc3ccc(OC(F)(F)F)cc3c2N2CCC(N3CCC(O)CC3)CC2)cc1 [Compound 102] | 0 | 0 | 5 | – | cytotoxicity at 20 µM [1]: 20%
11 | CCc1ccc(S(=O)(=O)c2cnc3ccc(OC(F)(F)F)cc3c2-n2ccnn2)cc1 [Compound 110] | *** (more than 50% but less than 100% of endothelial cells vesicularize in cell shape) | ** (more than 50% but less than 100% of endothelial cells vesicularize in cell shape) | 10 | 95 | –
12 | CCc1ccc(S(=O)(=O)c2cnc3ccc(OC(F)(F)F)cc3c2-n2nnc3ccccc32)cc1 [Compound 112] | *** (more than 50% but less than 100% of endothelial cells vesicularize in cell shape) | ** (more than 50% but less than 100% of endothelial cells vesicularize in cell shape) | 10 | 70 | –
13 | CCCCOc1ccc2ncc(S(=O)(=O)c3ccc(OC)c(OC)c3)c(N3CCC(N4CCCCC4)CC3)c2c1 [Compound 116] | *** (more than 50% but less than 100% of endothelial cells vesicularize in cell shape) | – | – | 100 | 48 hrs (morphology observations after 48 hours) ([2]; Conc. 20 μm): * (50% or less of cells vesicularize in cell shape); cytotoxicity at 20 µM [2]: 50%
14 | CCc1ccc(S(=O)(=O)c2cnc3ccc(OC(F)(F)F)cc3c2-n2cnc(C)c2)cc1 [Compound 117] | *** (more than 50% but less than 100% of endothelial cells vesicularize in cell shape) | – | – | – | cytotoxicity at 20 µM [1]: 100%; 48 hrs (morphology observations after 48 hours) ([2]; Conc. 20 μm): *** (100% of endothelial cells vesicularize in cell shape); cytotoxicity at 20 µM [2]: 100%
15 | CCc1ccc(S(=O)(=O)c2cnc3ccc(OC(F)(F)F)cc3c2-n2ccnc2)cc1 [Compound 118] | *** (more than 50% but less than 100% of endothelial cells vesicularize in cell shape) | – | – | – | cytotoxicity at 20 µM [1]: 100%; 48 hrs (morphology observations after 48 hours) ([2]; Conc. 20 μm): *** (100% of endothelial cells vesicularize in cell shape); cytotoxicity at 20 µM [2]: 100%
16 | CCCCOc1ccc(S(=O)(=O)c2cnc3ccc(OC(F)(F)F)cc3c2N2CCC(N3CCCCC3)CC2)cc1 [Compound 119] | *** (more than 50% but less than 100% of endothelial cells vesicularize in cell shape) | – | – | 100 | 48 hrs (morphology observations after 48 hours) ([2]; Conc. 20 μm): 0; cytotoxicity at 20 µM [2]: 50%
17 | COc1ccc(S(=O)(=O)c2cnc3ccc(SC)cc3c2N2CCC(N3CCCCC3)CC2)cc1OC [Compound 121] | – | *** (100% of endothelial cells vesicularize in cell shape) | 40 | – | Cell death ([1]; 40 μm): 50%
18 | CCCCOc1ccc(S(=O)(=O)c2cnc3ccc(OC(F)(F)F)cc3c2N2CCCN(C)CC2)cc1 [Compound 151] | – | **** (100% of endothelial cells vesicularize in cell shape and look flattened in morphology (indicating disintegration of the cell body)) | 100 | – | 48 hrs (morphology observations) ([1]; 40 μm): **** (100% of endothelial cells vesicularize in cell shape and look flattened in morphology (indicating disintegration of the cell body)); cytotoxicity at 40 µM [1]: 100%
19 | CCCCOc1ccc(S(=O)(=O)c2cnc3ccc(OC(F)(F)F)cc3c2N2CCC(N3CCC(O)CC3)CC2)cc1 [Compound 152] | * (50% or less of cells vesicularize in cell shape) | ** (more than 50% but less than 100% of endothelial cells vesicularize in cell shape) | 30 | 20 | –
20 | COc1ccc(S(=O)(=O)c2cnc3ccc(SC)cc3c2N2CCCN(C)CC2)cc1OC [Compound 154] | – | * (50% or less of cells vesicularize in cell shape) | 30 | – | 48 hrs (morphology observations) ([1]; 40 μm): * (50% or less of cells vesicularize in cell shape); cytotoxicity at 40 µM [1]: 30%
21 | CCCCN(CCCC)c1c(S(=O)(=O)c2ccc(OC)cc2)cnc2ccc(C(=O)OCC)cc12 [Compound 155] | – | *** (100% of endothelial cells vesicularize in cell shape) | 20 | – | 48 hrs (morphology observations) ([1]; 40 μm): *** (more than 50% but less than 100% of endothelial cells vesicularize in cell shape); cytotoxicity at 40 µM [1]: 80%
22 | CCOC(=O)c1ccc2ncc(S(=O)(=O)c3ccc(OC)cc3)c(N(CCO)CCO)c2c1 [Compound 156] | – | 0 | 0 | – | cytotoxicity at 40 µM [1]: 30%
